{"source": "paper PMC11784013", "about": "“Potassium molybdate blocks APN-dependent coronavirus entry by degrading receptor via PIK3C3-mediated autophagy” (Journal of Virology, 2024)", "key": {"APN": {"test_system": "APN", "assay": "APN expression in ST cells and porcine intestinal organoids (western blot, IFA)", "assay_type": "cell-based", "conditions": "PM 10 mM; for APN level, western blot, relative to WT without PM (=1) / APN level, western blot quantified by Image J, relative to no PM (=1): PRCV 0.1 MOI; for APN level, western blot quantified by Image J, relative to no PM (=1): ST cells", "description": "Fig 5 PM blocks TGEV infection by degrading APN expression. (A, D, and G) ST cells (A) or intestinal organoids monolayer (D) or apical-out intestinal organoids (G) were treated with PM (10 mM) at 2, 4, 8, and 16 h, which was collected and determined by western blot. (B, E, and H) ST cells (B) or intestinal organoids monolayer (E) or apical-out intestinal organoids (H) were treated with PM (10 mM) at 16 h, which was measured by IFA, scale bar: 20 µm. (C, F, and I) ST cells (C) or intestinal organoids monolayer (F) or apical-out intestinal organoids (I) were treated with PM (10 mM) and infected with 0.1 MOI TGEV at 2, 4, 8, and 16 h. The cell samples were harvested and detected by western blot. (J) ST cells were transfected with empty vector or pCMV-HA-APN (pig) plasmids for 24 h, which was treated with H2O or PM and then infected with 0.1 MOI TGEV for 16 h. The cell samples were detected by western blot. All western blot results were calculated by Image J. All experiments were performed in triplicate.\nCotransfected cells were washed with cold PBS twice and lysed with NP40 lysis buffer (Beyotime, China, P0013F) supplemented with 1 mM PMSF (Beyotime, China, ST506) and phosphatase inhibitors (Beyotime, China, P1096). Lysis buffer containing cells was added to 20 µL of protein A+G agarose beads (Beyotime, China, P2055) and IgG (Santa Cruz, USA, 2025) on a rotating device for 4 h at 4°C to remove nonspecific proteins, after which the mixture was centrifuged at 2,500 rpm for 5 min. The supernatant was harvested, and anti-Flag/Myc/His/IgG antibodies were added to the samples on a rocking platform overnight at 4°C. Subsequently, 40 µL of protein A+G agarose beads were added to the supernatant containing the antibody, which was incubated for 4 h at 4°C on a rotating device. After washing with lysis buffer three times, the immunoprecipitates were collected by centrifugation, and the supernatant was discarded. Immunoprecipitated proteins were detected by western blotting. For the western blot, the proteins were separated by SDS‒PAGE and transferred onto a PVDF membrane (GE, USA, 10600023). The membranes were blocked in 5% nonfat milk at room temperature for 2 h and then incubated with specific primary antibodies overnight. Subsequently, the membrane was incubated with the secondary antibody for 1 h at room temperature. Finally, the proteins on the membranes were visualized with WesternBright ECL (Advansta, USA, K-12045-D50).\nFig. S5. PM blocks PRCV infection by degrading APN expression. (A) ST cells were treated with PM (10 mM) and infected with 0.1 MOI PRCV at 2 h, 4 h, 8 h and 16 h. The cell samples were harvested and determined by western blot. All western blot results were calculated by Image J. All experiments were performed in triplicate.\nFig. S8. PM inhibits PRCV infection by degrading APN via PIK3C3-mediated autophagy. (A-C) WT ST cells and PIK3C3 KO ST cells were treated with PM (10 mM) and infected with PRCV (0.1 MOI) for 16 h. Then the APN, PIK3C3, ATG14, BECN1, P62, PRCV N and LC3 were detected by western blot (A), and viral titers and PRCV N mRNA level were determined by TCID50 (B) and RT-qPCR (C) . (D-F) WT ST cells and PIK3C3 KO ST cells transfected with pCMV-Myc and pCMV-Myc-PIK3C3 respectively for 24 h were treated with PM (10 mM) and infected with PRCV (0.1 MOI) for 16 h. The APN, PIK3C3, P62, PRCV N and LC3 were determined by western blot (D). TCID50 (E) and RT-qPCR (F) were performed to detect viral titers and PRCV N m RNA level. All western blot results were calculated by Image J. Results are presented as mean ± SD of data from three independent experiments […]"}, "[1]": {"assay_type": "in vivo", "conditions": "piglets, oral PM 100 mg/kg", "description": "Neonatal pigs spontaneously delivered from sows were confirmed to be negative for TGEV by RT-qPCR and enzyme-linked immunosorbent assay. For the cytotoxicity and pharmacokinetic parameters of the PM, three piglets were orally administered PM (100 mg/kg), and the serum was collected by venipuncture at 0, 1, 2, 4, 6, 8, 10, 12, 16, and 24 h after oral administration of PM for cytotoxicity assays and pharmacokinetic parameter determination. For antiviral animal experiments, piglets were randomly separated into four groups: the mock group ([3]), TGEV group ([3]), TGEV-PM-therapy group ([3]), and TGEV-PM-prevention group ([3]). For the TGEV group, neonatal pigs were orally administered 1.245 × 10^8 PFU TGEV Miller for 24 h. In addition, piglets in the TGEV-PM therapy group were orally infected with 1.245 × 10^8 PFU TGEV Miller and then treated with PM (100 mg/kg). For the TGEV-PM-prevention group, three neonatal pigs were orally pretreated with PM (100 mg/kg) for 24 h and subsequently inoculated with 1.245 × 10^8 PFU TGEV Miller for 24 h. The body weights of all piglets were recorded, and anal swabs were collected every 12 h. At 24 hpi, all pigs were euthanized, and intestinal tissues were collected for RT-qPCR, western blot, IFA, and pathological examination. All animals were handled in strict accordance with good animal practice according to the Animal Ethics Procedures and Guidelines of the People’s Republic of China, and the study was approved by The Animal Administration and Ethics Committee of Lanzhou Veterinary Research Institute, Chinese Academy of Agricultural Sciences (Permit No. LVRIAEC-2020-030).\nFig. S9. Cytotoxicity assay and t1/2 detection of PM in piglets. (A) The serum of piglets orally administered PM were collected at 1, 2, 4, 6, 8, 10, 12, 16 and 24 hours respectively and AST, CK and CREA level in those sera were measured by biochemical parameters. (B) PM concentrations at indicated times in piglets were determined by ICP-MS. Results are presented as mean ± SD of data from three independent experiments ns, no significant."}}}
{"compound": "[K+].[K+].[O]=[Mo](=[O])([O-])[O-]", "note": "[PM, potassium molybdate]", "values": [{"measurement": "APN level, western blot, relative to WT without PM (=1)", "setting": "APN; Fig. S8A, PIK3C3 KO ST cells, 16 h", "value": 0.88}, {"measurement": "APN level, western blot, relative to WT without PM (=1)", "setting": "APN; Fig. S8A, WT ST cells, 16 h", "value": 0.15}, {"measurement": "APN level, western blot, relative to WT without PM (=1)", "setting": "APN; Fig. S8D, PIK3C3 KO ST cells with PIK3C3-Myc, 16 h", "value": 0.14}, {"measurement": "APN level, western blot, relative to WT without PM (=1)", "setting": "APN; Fig. S8D, PIK3C3 KO ST cells without PIK3C3-Myc, 16 h", "value": 0.87}, {"measurement": "APN level, western blot, relative to WT without PM (=1)", "setting": "APN; Fig. S8D, WT ST cells with pCMV-Myc, 16 h", "value": 0.1}, {"measurement": "APN expression in ST cells", "setting": "APN; 2-16 h, western blot and IFA", "value": "decreased APN expression in ST cells"}, {"measurement": "APN expression in intestinal organoid monolayers and apical-out organoids", "setting": "APN; absence or presence of TGEV, different time points, western blot and IFA", "value": "decreased ex vivo APN expression"}, {"measurement": "APN level, western blot quantified by Image J, relative to no PM (=1)", "setting": "APN; 2 h", "value": 0.53}, {"measurement": "APN level, western blot quantified by Image J, relative to no PM (=1)", "setting": "APN; 4 h", "value": 0.31}, {"measurement": "APN level, western blot quantified by Image J, relative to no PM (=1)", "setting": "APN; 8 h", "value": 0.19}, {"measurement": "APN level, western blot quantified by Image J, relative to no PM (=1)", "setting": "APN; 16 h", "value": 0.01}, {"measurement": "t1/2", "setting": "[1]", "value": "approximately 12 h"}, {"measurement": "AUC(0-t)", "setting": "[1]; serum, mean ± SD", "value": "975.253 ± 33.380", "unit": "µg·h/mL"}, {"measurement": "AUC(0-∞)", "setting": "[1]; serum, mean ± SD", "value": "1,341.054 ± 21.475 mg/L*h"}, {"measurement": "CLz/F", "setting": "[1]; serum, mean ± SD", "value": "1.23 ± 0.017", "unit": "mL/min/kg"}, {"measurement": "Cmax", "setting": "[1]; serum, mean ± SD", "value": "62.645 ± 0.677", "unit": "µg/mL"}, {"measurement": "MRT(0-t)", "setting": "[1]; serum, mean ± SD", "value": "10.735 ± 0.155", "unit": "h"}, {"measurement": "MRT(0-∞)", "setting": "[1]; serum, mean ± SD", "value": "19.027 ± 1.388", "unit": "h"}, {"measurement": "Tmax", "setting": "[1]; serum, mean ± SD", "value": "7.333 ± 2.309", "unit": "h"}, {"measurement": "Vz/F", "setting": "[1]; serum, mean ± SD", "value": "1.267 ± 0.093", "unit": "L/kg"}, {"measurement": "t1/2z", "setting": "[1]; serum, mean ± SD", "value": "11.784 ± 0.954", "unit": "h"}]}
